These are literature values, as cited in publication PMC11859340, “The Therapeutic Potential of Spirooxindoles in Cancer: A Focus on p53–MDM2 Modulation” (Pharmaceuticals, 2025).

SMILES strings stand for the structures. Read-outs that look alike come from different tables or passages of the source.

The test system of data set [1] is A549 (lung). Further details: method as in PMID 26883465. Particulars: MTT; read-out: IC50 against A549.
The next data set concerns MDA-MB-231 (breast). Further details: method as in PMID 26883465. Particulars: MTT; read-out: IC50 against MDA-MB-231.
The subject of data set [2] is HCT116 (colon). Further details: method as in PMID 26883465. Particulars: MTT; read-out: IC50 against HCT116.
The next data set deals with HCT116 p53^−/−. The arrangement: method as in PMID 28800455. Particulars: read-out: IC50 against HCT116 p53^−/−.
A further data set has as its system HCT116 p53^+/+. The arrangement: method as in PMID 28800455. The note with it: read-out: IC50 against HCT116 p53^+/+.
The test system of data set [3] is MCF7 (breast). The arrangement: method as in PMID 28797774. The note with it: CCK-8; read-out: IC50 against MCF7.
Data set [4] concerns A549 (lung). The arrangement: method as in PMID 28797774. Particulars: CCK-8; read-out: IC50 against A549.
Data set [5] has as its system HCT116 (colon). Further details: method as in PMID 28797774. Particulars: CCK-8; read-out: IC50 against HCT116.
For data set [6], the target named is MDM2. The arrangement: method as in doi:10.3390/separations10040225. The note with it: MST; read-out: KD, MST binding affinity for MDM2.
In a further data set the test system is MDA-MB-231. The arrangement: method as in doi:10.3390/separations10040225. The note with it: MTT; read-out: IC50 against MDA-MB-231.
The next data set concerns PC3. Further details: method as in doi:10.3390/separations10040225. The note with it: MTT; read-out: IC50 against PC3.
The next data set concerns VERO. The arrangement: method as in PMID 25618595. Particulars: monkey kidney normal cell line; read-out: IC50 against VERO.
Another data set concerns MD-MB-231. The arrangement: method as in PMID 25618595. The note with it: MTT; read-out: IC50 against MD-MB-231.
A further data set concerns tumor growth. The arrangement: method as in PMID 25618595. The note with it: 20 mg/kg body weight over 14 days.
The test system of the next data set is MCF7. Further details: method as in PMID 25618595. The note with it: MTT; read-out: IC50 against MCF7.
The subject of the next data set is HEK-293. The arrangement: method as in PMID 25618595. The note with it: human kidney normal cell line; read-out: IC50 against HEK-293.
A further data set concerns p53. Further details: method as in PMID 37175323. Particulars: 22Rv1 and LNCaP, dose-dependent.
The test system of data set [7] is MDM2. The arrangement: method as in PMID 37175323. Particulars: induction of protein degradation.
The next data set concerns MDA-MB231 (breast). Further details: method as in PMID 34970530. The note with it: MTT; read-out: IC50 against MDA-MB231.
In data set [8] the test system is MCF7 (breast). The arrangement: method as in PMID 26256638. The note with it: MTT; read-out: IC50 against MCF7.
Another data set relates to HepG-2 (liver). Further details: method as in PMID 34970530. The note with it: MTT; read-out: IC50 against HepG-2.
The test system of another data set is Caco-2 (colon). Further details: method as in PMID 34970530. Particulars: MTT; read-out: IC50 against Caco-2.

As to `COC(=O)C[C@@H]1CS[C@]2(C(=O)Nc3cccc(Br)c32)[C@H](c2ccc(Br)cc2)[C@H]1C=O` [136 (R = 4-Br, R’ = 4-BrC6H4)], the IC50 in the data set on A549 (lung) [1] was 1.67 µM; in the data set with MDA-MB-231 (breast), 3.55 µM; in the data set with HCT116 (colon) [2], 1.57 µM.
`O=C1Nc2ccc(Br)cc2[C@]12[C@@H](c1ccccc1)C(c1ccccc1)=NN2c1ccccc1` [97 (R = 5-Br, R^1 = R^3 = H, R^2 = Ph)]: the IC50 was 14.2 ± 0.8 µM with HCT116 p53^−/− and 13.1 ± 1 µM in the data set with HCT116 p53^+/+.
`CCN(CC)c1ccc(N2C[C@H]3[C@@H](CS[C@]4(C(=O)Nc5cccc(Br)c54)[C@@H]3c3ccc(Br)cc3)CC2=O)cc1` [143 (R = 4-(4-diethylamino)C6H4)]: the results for the IC50 with MCF7 (breast) [3], with A549 (lung) [4] and with HCT116 (colon) [5] were 2.4 ± 0.1 µM, 2.9 ± 0.2 µM and 1.8 ± 0.5 µM, respectively.
Turning to `O=C(c1nc2ccccc2[nH]1)[C@H]1[C@H](c2ccc(Cl)cc2)C2CC3CCCCC3N2[C@]12C(=O)Nc1ccc(Cl)cc12` (stereo partly shown) [39 (R = 4-ClC6H4)], the Kd (as a rule, the equilibrium constant for the complex coming apart) at MDM2 [6] is 2.38 µM. Also, the IC50 in the data set with MDA-MB-231 was 4.76 ± 0.069 µM; in the data set with PC3 it was 4.574 ± 0.011 µM.
For `O=C(c1ccc(OCCN2CCCCC2)cc1)C1[C@H](c2ccccc2)[C@@H](c2ccccc2)NC12C(=O)Nc1ccc(Cl)cc12` (stereo partly shown), the IC50 is more than 50 µM with VERO, 3.7 µM in the data set with MD-MB-231, 6.5 µM in the data set with MCF7 and more than 50 µM in the data set with HEK-293. In addition, the “tumor growth compared to the untreated control group” value in the data set on tumor growth was “reduction in tumor growth”.
Turning to `COc1cc(C(N)=O)ccc1NC(=O)[C@H]1[C@H](c2cccc(Cl)c2F)C2(C(=O)Nc3cc(Cl)ccc32)[C@H](CC(C)(C)C)N1C(=O)OCCOCCOCCOCCOC(=O)N1[C@@H](CC(C)(C)C)[C@@]2(C(=O)Nc3cc(Cl)ccc32)[C@@H](c2cccc(Cl)c2F)[C@@H]1C(=O)Nc1ccc(C(N)=O)cc1OC` (stereo partly shown) [compound 44], in the data set on p53, the p53 levels entry is given as “increase in p53 levels”. Further, the MDM2 level result with MDM2 [7] was “Downregulation of MDM2”.
With `O=c1[nH]cc(F)c(=O)[nH]1` [5-fluorouracil], the IC50 in the data set with MDA-MB231 (breast) was 7.05 ± 0.204 µM; in the data set with MCF7 (breast) [8] it was 10.5 ± 1.6 µM; in the data set with HepG-2 (liver), 4.83 ± 0.296 µM; with Caco-2 (colon), 1.05 ± 0.156 µM.
